Legend:
Rattus norvegicus = experiment: Compound was evaluated in vivo for its potency to antagonise serotonin 5-HT-inducedbradycardia in the anesthetized rat; assay type: functional
[1] = target: T1, Serotonin 3 (5-HT3) receptor (Rattus norvegicus, UniProt P35563+Q9JJ16); experiment: Binding affinity was evaluated in vitro by displacement of [3H]zacopride radioligand from 5-hydroxytryptamine 3 receptor; assay type: protein-complex assay
T1 sequence (P35563 whole entry): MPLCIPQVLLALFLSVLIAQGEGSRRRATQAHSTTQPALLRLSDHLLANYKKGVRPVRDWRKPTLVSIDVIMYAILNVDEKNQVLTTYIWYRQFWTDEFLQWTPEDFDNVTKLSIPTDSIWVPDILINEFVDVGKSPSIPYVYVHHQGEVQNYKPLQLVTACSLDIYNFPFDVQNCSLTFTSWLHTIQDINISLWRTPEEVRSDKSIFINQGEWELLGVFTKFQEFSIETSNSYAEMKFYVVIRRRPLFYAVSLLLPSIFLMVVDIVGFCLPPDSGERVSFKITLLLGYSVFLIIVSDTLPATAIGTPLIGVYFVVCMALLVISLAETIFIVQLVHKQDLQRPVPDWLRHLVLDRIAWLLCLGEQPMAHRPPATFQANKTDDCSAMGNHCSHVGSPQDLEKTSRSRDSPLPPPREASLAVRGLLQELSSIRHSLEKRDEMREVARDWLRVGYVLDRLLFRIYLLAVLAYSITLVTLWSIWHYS
T1 sequence (Q9JJ16 whole entry): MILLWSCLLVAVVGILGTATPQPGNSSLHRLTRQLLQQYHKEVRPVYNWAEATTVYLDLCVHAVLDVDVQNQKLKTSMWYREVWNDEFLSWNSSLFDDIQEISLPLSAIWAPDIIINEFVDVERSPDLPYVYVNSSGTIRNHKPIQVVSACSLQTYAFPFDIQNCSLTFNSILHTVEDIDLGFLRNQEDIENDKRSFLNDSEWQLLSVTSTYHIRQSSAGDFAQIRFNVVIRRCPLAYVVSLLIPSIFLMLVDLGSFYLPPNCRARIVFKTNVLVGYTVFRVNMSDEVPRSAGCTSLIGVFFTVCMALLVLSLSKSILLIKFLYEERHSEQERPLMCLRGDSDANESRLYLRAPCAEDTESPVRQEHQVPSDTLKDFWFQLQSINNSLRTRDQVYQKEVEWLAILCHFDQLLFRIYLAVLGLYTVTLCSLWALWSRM

CN1C2CCC1CC(Oc1nc3ccccc3s1)C2 (stereo not drawn)
Dose (Rattus norvegicus): 0.1 mg/kg
IC50 [1]: 6.9 nM

CN1[C@@H]2CC[C@H]1C[C@@H](OC(=O)c1cc(Cl)cc(Cl)c1)C2 [BEMESETRON]
Dose (Rattus norvegicus): 0.1 mg/kg
IC50 [1]: 42.6 nM

Cc1nccn1CC1CCc2c(c3ccccc3n2C)C1=O (stereo not drawn) [ONDANSETRON]
Dose (Rattus norvegicus): 0.01 mg/kg

CN1C2CCC1CC(Oc1ccc3ccccc3n1)C2 (stereo not drawn)
Dose (Rattus norvegicus): 10 mg/kg
IC50 [1]: 39.6 nM

CN1[C@@H]2CC[C@H]1C[C@@H](OC(=O)c1c[nH]c3ccccc13)C2 [TROPISETRON]
Dose (Rattus norvegicus): 0.01 mg/kg
IC50 [1]: 2.3 nM

COc1cc(N)c(Cl)cc1C(=O)NC1CN2CCC1CC2 (stereo not drawn) [ZACOPRIDE]
Dose (Rattus norvegicus): 0.01 mg/kg
IC50 [1]: 2.2 nM

c1ccc2nc(OC3CN4CCC3CC4)ccc2c1 (stereo not drawn)
Dose (Rattus norvegicus): 3 mg/kg
IC50 [1]: 48 nM
